# Source: patent publication US10710978B2, “STK4 inhibitors for treatment of hematologic malignancies” (Dana-Farber Cancer Institute, Inc., priority 2015, dated 2020)
# Where two headings read alike, the source gives them in different places.
# Experiments:
# Test in all cases: KiNativ assay
# Type in all cases: binding
# ULK1 = ULK1 (Homo sapiens (Human), UniProt O75385); settings: H929 live cell
# Method: (§1) Biochemical IC50s of the compounds of the present disclosure against various kinases were measured in a KiNativ assay. Compounds were screened in duplicate at 10 μM in H929 live cell. IC50 was measured via Mass spectroscopy (MS).
# NEK9 = NEK9 (Homo sapiens (Human), UniProt Q8TD19); settings: H929 live cell
# Method: as §1
# TBK1 = TBK1 (Homo sapiens (Human), UniProt Q9UHD2); settings: H929 live cell
# Sequence of TBK1 (Q9UHD2 whole entry): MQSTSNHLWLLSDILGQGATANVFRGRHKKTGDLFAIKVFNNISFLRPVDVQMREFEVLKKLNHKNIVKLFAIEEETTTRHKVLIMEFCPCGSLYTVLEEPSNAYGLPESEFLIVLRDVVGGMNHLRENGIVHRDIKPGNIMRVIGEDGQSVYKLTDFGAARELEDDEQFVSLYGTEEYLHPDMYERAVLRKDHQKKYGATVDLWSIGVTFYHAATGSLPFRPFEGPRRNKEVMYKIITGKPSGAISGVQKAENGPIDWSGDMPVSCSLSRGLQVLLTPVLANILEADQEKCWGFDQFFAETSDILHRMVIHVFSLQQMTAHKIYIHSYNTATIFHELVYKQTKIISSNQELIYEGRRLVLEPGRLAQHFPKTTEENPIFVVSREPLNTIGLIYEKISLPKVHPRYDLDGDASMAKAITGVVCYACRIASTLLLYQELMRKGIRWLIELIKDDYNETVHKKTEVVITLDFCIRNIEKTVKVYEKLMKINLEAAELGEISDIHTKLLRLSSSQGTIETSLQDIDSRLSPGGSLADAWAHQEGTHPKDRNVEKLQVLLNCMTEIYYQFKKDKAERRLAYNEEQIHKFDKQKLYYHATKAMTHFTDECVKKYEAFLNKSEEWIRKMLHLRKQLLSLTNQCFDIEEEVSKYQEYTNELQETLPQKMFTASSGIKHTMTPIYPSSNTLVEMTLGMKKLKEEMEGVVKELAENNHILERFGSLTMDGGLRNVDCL
# Method: as §1
# MST4 = settings: H929 live cell
# Method: as §1
# TYK2 domain2 = TYK2 domain2 (Homo sapiens (Human), UniProt P29597); settings: H929 live cell
# Method: as §1
# HPK1 = HPK1 (Homo sapiens (Human), UniProt Q92918); settings: H929 live cell
# Sequence of HPK1 (Q92918 whole entry): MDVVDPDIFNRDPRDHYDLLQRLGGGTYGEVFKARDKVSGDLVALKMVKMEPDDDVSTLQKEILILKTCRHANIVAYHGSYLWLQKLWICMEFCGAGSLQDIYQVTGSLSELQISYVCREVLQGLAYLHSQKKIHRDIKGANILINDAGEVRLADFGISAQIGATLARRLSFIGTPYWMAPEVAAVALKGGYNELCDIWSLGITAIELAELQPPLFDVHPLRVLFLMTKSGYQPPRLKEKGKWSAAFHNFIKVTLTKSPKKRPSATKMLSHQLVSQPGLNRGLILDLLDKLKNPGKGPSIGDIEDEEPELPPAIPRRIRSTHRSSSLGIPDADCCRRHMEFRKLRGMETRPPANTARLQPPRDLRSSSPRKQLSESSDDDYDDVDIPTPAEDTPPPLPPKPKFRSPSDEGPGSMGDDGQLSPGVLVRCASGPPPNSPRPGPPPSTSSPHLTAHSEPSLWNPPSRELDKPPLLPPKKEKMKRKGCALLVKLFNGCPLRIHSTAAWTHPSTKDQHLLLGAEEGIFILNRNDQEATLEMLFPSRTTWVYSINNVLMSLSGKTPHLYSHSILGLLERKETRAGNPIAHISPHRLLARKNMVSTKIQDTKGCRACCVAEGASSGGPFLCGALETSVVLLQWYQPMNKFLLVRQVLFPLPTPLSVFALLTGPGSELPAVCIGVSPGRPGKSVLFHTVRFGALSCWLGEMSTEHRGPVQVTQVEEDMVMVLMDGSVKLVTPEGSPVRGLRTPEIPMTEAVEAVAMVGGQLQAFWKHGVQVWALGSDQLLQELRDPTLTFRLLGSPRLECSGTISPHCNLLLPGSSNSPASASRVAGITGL
# Method: as §1
# FRAP = FRAP (Homo sapiens (Human), UniProt P42345); settings: H929 live cell
# Method: as §1
# RSKL1 = RSKL1 (Homo sapiens (Human), UniProt Q96S38); settings: H929 live cell
# Method: as §1
# MAP2K7 = MAP2K7 (Homo sapiens (Human), UniProt O14733); settings: H929 live cell
# Method: as §1
# PFTAIRE1 = PFTAIRE1 (Homo sapiens (Human), UniProt O94921); settings: H929 live cell
# Sequence of PFTAIRE1 (O94921 whole entry): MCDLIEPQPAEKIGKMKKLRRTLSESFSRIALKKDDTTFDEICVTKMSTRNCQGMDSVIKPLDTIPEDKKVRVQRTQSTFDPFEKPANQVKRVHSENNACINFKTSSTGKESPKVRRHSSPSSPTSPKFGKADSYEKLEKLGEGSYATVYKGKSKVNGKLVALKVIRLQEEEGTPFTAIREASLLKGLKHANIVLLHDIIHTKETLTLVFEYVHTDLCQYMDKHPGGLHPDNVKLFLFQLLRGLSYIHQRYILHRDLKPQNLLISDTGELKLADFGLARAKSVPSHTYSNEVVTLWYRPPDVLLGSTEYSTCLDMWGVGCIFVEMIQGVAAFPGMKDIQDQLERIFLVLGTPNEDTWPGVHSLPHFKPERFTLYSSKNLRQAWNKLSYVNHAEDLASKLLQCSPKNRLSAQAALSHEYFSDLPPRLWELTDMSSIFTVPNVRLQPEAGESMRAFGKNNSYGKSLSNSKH
# Sequence of PFTAIRE1 (Q8ND76 whole entry partner): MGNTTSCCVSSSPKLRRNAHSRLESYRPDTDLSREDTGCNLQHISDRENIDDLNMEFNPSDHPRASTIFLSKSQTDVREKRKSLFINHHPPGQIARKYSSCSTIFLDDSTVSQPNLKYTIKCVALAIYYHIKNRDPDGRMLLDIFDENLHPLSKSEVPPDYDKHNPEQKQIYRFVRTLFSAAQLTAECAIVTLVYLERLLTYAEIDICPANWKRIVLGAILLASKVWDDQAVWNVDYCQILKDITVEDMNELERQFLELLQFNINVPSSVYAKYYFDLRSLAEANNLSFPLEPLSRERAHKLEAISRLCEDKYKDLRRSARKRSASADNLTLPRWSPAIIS
# Method: as §1
# MPSK1 = MPSK1 (Homo sapiens (Human), UniProt O75716); settings: H929 live cell, read-out: inhibition (10 μM)
# Method: as §1
# OSR1 = OSR1 (Homo sapiens (Human), UniProt O95747); settings: H929 live cell
# Method: as §1
# MAP2K3 = MAP2K3 (Homo sapiens (Human), UniProt P46734); settings: H929 live cell
# Sequence of MAP2K3 (P46734 whole entry): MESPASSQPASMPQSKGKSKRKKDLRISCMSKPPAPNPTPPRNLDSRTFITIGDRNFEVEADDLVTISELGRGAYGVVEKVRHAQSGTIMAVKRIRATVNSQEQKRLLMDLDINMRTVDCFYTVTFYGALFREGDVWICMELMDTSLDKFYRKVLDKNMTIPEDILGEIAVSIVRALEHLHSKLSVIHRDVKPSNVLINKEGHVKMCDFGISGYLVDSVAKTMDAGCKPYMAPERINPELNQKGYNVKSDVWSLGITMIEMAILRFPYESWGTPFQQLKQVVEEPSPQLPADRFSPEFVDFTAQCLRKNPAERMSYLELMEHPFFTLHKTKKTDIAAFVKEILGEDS
# Method: as §1
# AurA, AurB, AurC = settings: H929 live cell
# Method: as §1
# RSK2 domain1 = RSK2 domain1 (Homo sapiens (Human), UniProt P51812); settings: H929 live cell
# Sequence of RSK2 domain1 (P51812 whole entry, the tested form may be a part): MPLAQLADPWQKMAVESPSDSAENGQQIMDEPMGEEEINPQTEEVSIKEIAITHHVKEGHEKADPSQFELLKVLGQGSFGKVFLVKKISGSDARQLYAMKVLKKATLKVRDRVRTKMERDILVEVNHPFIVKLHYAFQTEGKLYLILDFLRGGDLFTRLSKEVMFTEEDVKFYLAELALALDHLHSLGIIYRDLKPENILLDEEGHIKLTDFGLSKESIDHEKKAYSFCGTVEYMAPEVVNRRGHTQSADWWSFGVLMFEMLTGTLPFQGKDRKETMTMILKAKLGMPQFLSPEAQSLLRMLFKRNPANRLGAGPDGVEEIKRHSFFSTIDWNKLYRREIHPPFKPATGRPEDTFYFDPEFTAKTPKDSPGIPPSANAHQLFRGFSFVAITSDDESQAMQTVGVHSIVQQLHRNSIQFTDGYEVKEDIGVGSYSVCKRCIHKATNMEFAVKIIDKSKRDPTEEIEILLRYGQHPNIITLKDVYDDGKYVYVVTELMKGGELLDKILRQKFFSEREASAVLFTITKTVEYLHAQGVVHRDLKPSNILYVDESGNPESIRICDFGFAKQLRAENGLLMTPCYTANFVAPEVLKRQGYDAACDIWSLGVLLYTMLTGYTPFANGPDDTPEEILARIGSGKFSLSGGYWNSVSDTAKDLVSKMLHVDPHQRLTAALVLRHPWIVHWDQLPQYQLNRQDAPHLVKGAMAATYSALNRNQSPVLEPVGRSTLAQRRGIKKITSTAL
# Method: as §1
# MST4, YSK1 = settings: H929 live cell
# Method: as §1
# MARK1, MARK2 = settings: H929 live cell
# Method: as §1
# PKD2 = PKD2 (Homo sapiens (Human), UniProt Q9BZL6); settings: H929 live cell
# Method: as §1
# DGKH = DGKH (Homo sapiens (Human), UniProt Q86XP1); settings: H929 live cell, read-out: inhibition (10 μM)
# Method: as §1
# CK1g2 = CK1g2 (Homo sapiens (Human), UniProt P78368); settings: H929 live cell
# Method: as §1
# MARK3 = MARK3 (Homo sapiens (Human), UniProt P27448); settings: H929 live cell
# Method: as §1
# PHKg2 = PHKg2 (Homo sapiens (Human), UniProt P15735); settings: H929 live cell
# Method: as §1
# PI4KA, PI4KAP2 = settings: H929 live cell
# Method: as §1
# SMG1 = SMG1 (Homo sapiens (Human), UniProt Q96Q15); settings: H929 live cell
# Method: as §1
# IKKa = IKKa (Homo sapiens (Human), UniProt O15111); settings: H929 live cell
# Method: as §1
# MST1 = MST1 (Homo sapiens (Human), UniProt Q13043); settings: H929 live cell
# Method: as §1
# PLK1 = PLK1 (Homo sapiens (Human), UniProt P53350); settings: H929 live cell
# Method: as §1
# MAP2K1 = MAP2K1 (Homo sapiens (Human), UniProt Q02750); settings: H929 live cell
# Sequence of MAP2K1 (Q02750 whole entry): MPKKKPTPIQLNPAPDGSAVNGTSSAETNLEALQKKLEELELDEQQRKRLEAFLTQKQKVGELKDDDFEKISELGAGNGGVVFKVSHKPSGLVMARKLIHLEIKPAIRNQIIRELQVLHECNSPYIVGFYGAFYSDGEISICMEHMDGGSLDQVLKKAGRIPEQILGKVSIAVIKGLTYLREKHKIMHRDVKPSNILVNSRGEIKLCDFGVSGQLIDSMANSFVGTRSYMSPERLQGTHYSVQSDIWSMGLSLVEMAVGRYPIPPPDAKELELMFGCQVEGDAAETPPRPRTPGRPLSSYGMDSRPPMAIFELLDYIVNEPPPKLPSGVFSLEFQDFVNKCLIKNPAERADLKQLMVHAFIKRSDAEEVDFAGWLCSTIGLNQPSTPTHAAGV
# Method: as §1
# CK1a = CK1a (Homo sapiens (Human), UniProt P48729); settings: H929 live cell
# Method: as §1
# CDK5 = CDK5 (Homo sapiens (Human), UniProt Q00535); settings: H929 live cell
# Method: as §1
# EphB2 = EphB2 (Homo sapiens (Human), UniProt P29323); settings: H929 live cell
# Sequence of EphB2 (P29323 19-1055): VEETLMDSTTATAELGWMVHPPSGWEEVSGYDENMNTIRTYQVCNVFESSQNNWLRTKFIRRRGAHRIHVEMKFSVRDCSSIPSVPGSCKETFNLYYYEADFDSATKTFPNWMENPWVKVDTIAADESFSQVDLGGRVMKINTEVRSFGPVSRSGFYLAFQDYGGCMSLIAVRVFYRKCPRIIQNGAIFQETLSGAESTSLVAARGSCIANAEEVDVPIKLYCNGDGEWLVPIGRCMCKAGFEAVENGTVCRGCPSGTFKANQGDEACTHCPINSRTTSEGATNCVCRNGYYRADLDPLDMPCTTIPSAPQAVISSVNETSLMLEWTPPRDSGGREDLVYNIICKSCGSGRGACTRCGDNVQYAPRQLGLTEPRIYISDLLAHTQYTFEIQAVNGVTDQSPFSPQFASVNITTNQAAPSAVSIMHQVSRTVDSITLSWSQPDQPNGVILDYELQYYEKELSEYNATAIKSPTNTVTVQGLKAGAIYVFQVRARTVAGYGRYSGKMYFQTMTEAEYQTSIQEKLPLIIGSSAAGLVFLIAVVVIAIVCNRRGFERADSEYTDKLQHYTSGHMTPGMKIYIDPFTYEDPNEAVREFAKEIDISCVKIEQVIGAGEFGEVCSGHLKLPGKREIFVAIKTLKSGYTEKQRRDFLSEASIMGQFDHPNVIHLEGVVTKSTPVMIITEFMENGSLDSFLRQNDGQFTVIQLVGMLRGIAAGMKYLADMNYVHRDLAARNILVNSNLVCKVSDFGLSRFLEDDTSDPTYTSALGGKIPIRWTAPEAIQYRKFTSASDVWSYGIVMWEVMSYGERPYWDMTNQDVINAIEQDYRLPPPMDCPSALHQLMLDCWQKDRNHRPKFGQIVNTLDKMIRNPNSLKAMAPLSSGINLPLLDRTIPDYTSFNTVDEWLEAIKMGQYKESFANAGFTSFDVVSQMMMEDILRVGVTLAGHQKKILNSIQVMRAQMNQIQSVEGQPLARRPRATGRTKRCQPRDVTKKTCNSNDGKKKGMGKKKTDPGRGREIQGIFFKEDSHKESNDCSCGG
# Method: as §1
# BRAF = BRAF (Homo sapiens (Human), UniProt P15056); settings: H929 live cell
# Method: as §1
# MAP2K5 = MAP2K5 (Homo sapiens (Human), UniProt Q13163); settings: H929 live cell
# Method: as §1
# PKN1 = PKN1 (Homo sapiens (Human), UniProt Q16512); settings: H929 live cell
# Method: as §1
smiles,measurement,setting,value
"Nc1ncc(-c2cccc([N+](=O)[O-])c2F)cc1-c1ccc2c(c1)CCNC2=O [Compound I-9, 6-(2-amino-5-(2-fluoro-3-nitrophenyl)pyridin-3-yl)-3,4-dihydroisoquinolin-1(2H)-one]",inhibition at 10 µM,ULK1; read-out: % inhibition (range),0%
same,inhibition at 10 µM,ULK1; read-out: inhibition (10 μM),-19.6%
same,inhibition at 10 µM,NEK9; read-out: % inhibition (range),0%
same,inhibition at 10 µM,NEK9; read-out: inhibition (10 μM),-38.3%
same,inhibition at 10 µM,TBK1; read-out: % inhibition (range),0%
same,inhibition at 10 µM,TBK1; read-out: inhibition (10 μM),23.7%
same,inhibition (10 μM),MST4,47.0%
same,inhibition at 10 µM,TYK2 domain2; read-out: % inhibition (range),0%
same,inhibition at 10 µM,TYK2 domain2; read-out: inhibition (10 μM),29.9%
same,inhibition at 10 µM,HPK1; read-out: % inhibition (range),> 90%
same,inhibition at 10 µM,HPK1; read-out: inhibition (10 μM),97.5%
same,inhibition at 10 µM,FRAP; read-out: % inhibition (range),50 to 75%
same,inhibition at 10 µM,FRAP; read-out: inhibition (10 μM),72.7%
same,inhibition at 10 µM,RSKL1; read-out: % inhibition (range),0%
same,inhibition at 10 µM,RSKL1; read-out: inhibition (10 μM),0.2%
same,inhibition at 10 µM,MAP2K7; read-out: % inhibition (range),0%
same,inhibition at 10 µM,MAP2K7; read-out: inhibition (10 μM),14.6%
same,inhibition at 10 µM,PFTAIRE1; read-out: % inhibition (range),50 to 75%
same,inhibition at 10 µM,PFTAIRE1; read-out: inhibition (10 μM),74.6%
same,inhibition at 10 µM,MPSK1,55.2%
same,inhibition at 10 µM,OSR1; read-out: % inhibition (range),0%
same,inhibition at 10 µM,OSR1; read-out: inhibition (10 μM),-11.8%
same,inhibition at 10 µM,MAP2K3; read-out: % inhibition (range),0%
same,inhibition at 10 µM,MAP2K3; read-out: inhibition (10 μM),-34.2%
same,% inhibition (range),"AurA, AurB, AurC; 10 μM",50-75%
same,inhibition (10 μM),"AurA, AurB, AurC",66.2%
same,inhibition at 10 µM,RSK2 domain1; read-out: % inhibition (range),50 to 75%
same,inhibition at 10 µM,RSK2 domain1; read-out: inhibition (10 μM),69.9%
same,% inhibition (range),"MST4, YSK1; 10 μM",0.0%
same,inhibition (10 μM),"MST4, YSK1",33.0%
same,% inhibition (range),"MARK1, MARK2; 10 μM",35-50%
same,inhibition (10 μM),"MARK1, MARK2",40.7%
same,inhibition at 10 µM,PKD2; read-out: % inhibition (range),35 to 50%
same,inhibition at 10 µM,PKD2; read-out: inhibition (10 μM),46.2%
same,inhibition at 10 µM,DGKH,44.2%
same,inhibition at 10 µM,CK1g2; read-out: % inhibition (range),> 90%
same,inhibition at 10 µM,CK1g2; read-out: inhibition (10 μM),> 90%
same,inhibition at 10 µM,MARK3; read-out: % inhibition (range),75 to 90%
same,inhibition at 10 µM,MARK3; read-out: inhibition (10 μM),78.3%
same,inhibition at 10 µM,PHKg2; read-out: % inhibition (range),0%
same,inhibition at 10 µM,PHKg2; read-out: inhibition (10 μM),-30.7%
same,% inhibition (range),"PI4KA, PI4KAP2; 10 μM",0.0%
same,inhibition (10 μM),"PI4KA, PI4KAP2",−5.5%
same,inhibition at 10 µM,SMG1; read-out: % inhibition (range),> 90%
same,inhibition at 10 µM,SMG1; read-out: inhibition (10 μM),94.7%
same,inhibition at 10 µM,IKKa; read-out: % inhibition (range),0%
same,inhibition at 10 µM,IKKa; read-out: inhibition (10 μM),-18.4%
same,inhibition at 10 µM,MST1; read-out: % inhibition (range),> 90%
same,inhibition at 10 µM,MST1; read-out: inhibition (10 μM),95.4%
same,inhibition at 10 µM,PLK1; read-out: % inhibition (range),0%
same,inhibition at 10 µM,PLK1; read-out: inhibition (10 μM),14.2%
same,inhibition at 10 µM,MAP2K1; read-out: % inhibition (range),0%
same,inhibition at 10 µM,MAP2K1; read-out: inhibition (10 μM),-55.8%
same,inhibition at 10 µM,CK1a; read-out: % inhibition (range),75 to 90%
same,inhibition at 10 µM,CK1a; read-out: inhibition (10 μM),84.6%
same,inhibition at 10 µM,CDK5; read-out: % inhibition (range),75 to 90%
same,inhibition at 10 µM,CDK5; read-out: inhibition (10 μM),78.7%
same,inhibition at 10 µM,EphB2; read-out: % inhibition (range),0%
same,inhibition at 10 µM,EphB2; read-out: inhibition (10 μM),-25%
same,inhibition at 10 µM,BRAF; read-out: % inhibition (range),0%
same,inhibition at 10 µM,BRAF; read-out: inhibition (10 μM),3.3%
same,inhibition at 10 µM,MAP2K5; read-out: % inhibition (range),75 to 90%
same,inhibition at 10 µM,MAP2K5; read-out: inhibition (10 μM),75.2%
same,inhibition at 10 µM,PKN1; read-out: % inhibition (range),50 to 75%
same,inhibition at 10 µM,PKN1; read-out: inhibition (10 μM),56.9%
